# Where a name gives a salt, the structure may show the parent alone.
# How the values were obtained:
# [1] = parameters: method as in PMID 31172838; conditions: ATC vs LDC; cited from earlier work
# SH-SY5Y cells [2] = conditions: cited from earlier work
# [3] = cited from earlier work
# SH-SY5Y cells [4] = experiment: 1H NMR metabolic profiling of cell aqueous extracts; type: cell-based, human; conditions: for 2-Ketovaline, variation in relation to control / 2-Oxoisoleucine, variation in relation to control / ATP + ADP, variation in relation to control / Alanine, variation in relation to control / Asparagine, variation in relation to control / Aspartate, variation in relation to control / Creatine, variation in relation to control / Cystathionine, variation in relation to control / Formate, variation in relation to control / Glutamate, variation in relation to control / Glutamine, variation in relation to control / Glycerophosphocholine, variation in relation to control / Glycine, variation in relation to control / Histidine, variation in relation to control / Isobutyrate, variation in relation to control / Isoleucine, variation in relation to control / Lactate, variation in relation to control / Leucine, variation in relation to control / NAD+, variation in relation to control / Panthothenic, variation in relation to control / Phenylalanine, variation in relation to control / Phosphocholine, variation in relation to control / Phosphocreatine, variation in relation to control / Proline, variation in relation to control / UDP-GlcNAc, variation in relation to control / Valine, variation in relation to control / beta-Alanine, variation in relation to control / myo-Inositol, variation in relation to control: aqueous extract
# Protocol: Afterward, the medium was collected and the dishes washed with cold PBS, immediately before the solvent extraction procedure described below. Unexposed cells were used as controls. Each assay comprised duplicates of each condition and three independent assays were performed, giving a total of 6 replicates per condition.
# The culture medium was collected from each plate (including cell-free medium incubated under the same conditions) in conical tubes and centrifuged at 1000× g for 10 min. Furthermore, 300 µL of the supernatant were collected for protein precipitation, as described by Kostidis et al.. Briefly, 600 µL of 100% methanol (v/v) at −80 °C were added to the collected supernatant ([…]). […] The supernatant was transferred to another tube and vacuum dried (SpeedVac, Eppendorf, Hamburg, Germany). For extracting cellular metabolites, a biphasic extraction protocol (methanol:chloroform:water; 1:1:0.7) was used as previously described. The resulting polar extracts were dried under vacuum in a Speedvac concentrator, and the lipophilic extracts were dried under a nitrogen flow. All extracts were stored at −80 °C prior to NMR analysis.
# For NMR analysis, dried aqueous and lipid extracts were dissolved, respectively, in 600 μL of deuterated phosphate buffer (PBS 100 mM, pH 7.4) containing 0.1 mM 3-(trimethylsilyl) propionic acid (TSP-d4), and 600 μL of deuterated chloroform containing 0.03% tetramethylsilane (TMS). […] Two-dimensional NMR spectra, namely, ^1H-^1H TOCSY, J-resolved and ^1H-^13C HSQC spectra, were also recorded for selected samples to aid metabolite identification. Signal assignment was based on matching 1D and 2D spectral information to reference spectra available in Chenomx 9.0 (Edmonton, AB, Canada), BBIOREFCODE-2–0–0 (Bruker Biospin, Rheinstetten, Germany) and HMDB.
# Principal Component Analysis (PCA) and Partial Least Squares-Discriminant Analysis (PLS-DA) were applied and the results were visualized through factorial co-ordinates (‘scores’) and factorial contributions (‘loadings’) colored according to variable importance to the projection (VIP). For PLS-DA models, Q^2 and R^2 values, respectively reflecting predictive capability and explained variance, obtained from sevenfold internal cross validation, were used to assess the robustness of group discrimination.
# To provide a quantitative measurement of metabolic variations, spectral integration and total area normalization of selected signals (vide Supplementary Table S1) were carried out in Amix-Viewer 3.9.15 (Bruker Biospin, Rheinstetten, Germany). For each metabolite, the percentage of variation (or fold change) in exposed samples was calculated relative to respective controls, along with the effect size (ES) and statistical significance (p-value). The variations with larger magnitude (|ES| > 0.8) were expressed in a heatmap.
# [5] = parameters: method as in PMID 31172838; conditions: neutral species; cited from earlier work
# [6] = test system: neuronal cells of a different lineage (SHEP); conditions: 24 h; cited from earlier work
smiles,measurement,setting,value
"CCCNC(C)C(=O)Nc1c(C)csc1C(=O)OC (stereo not shown) [ATC, Articaine hydrochloride]",fold lower egg phosphatidylcholine/aqueous buffer partition coefficient (P) than LDC,[1],10 ×
same,effect on cells at very short exposure,SH-SY5Y cells [2]; 5 min exposure,no effect
same,LD50,SH-SY5Y cells [2]; 20 min incubation of SH-SY5Y cells,9.0 mM
same,Plasma half-life,[3],20 min
same,"2-Ketovaline, variation in relation to control","SH-SY5Y cells [4]; IC10, 24 h",24.7%
same,"2-Oxoisoleucine, variation in relation to control","SH-SY5Y cells [4]; IC10, 24 h",33.8%
same,"ATP + ADP, variation in relation to control","SH-SY5Y cells [4]; IC10, 24 h",-8.0%
same,"Alanine, variation in relation to control","SH-SY5Y cells [4]; IC10, 24 h",0.0%
same,"Asparagine, variation in relation to control","SH-SY5Y cells [4]; IC10, 24 h",-24.6%
same,"Aspartate, variation in relation to control","SH-SY5Y cells [4]; IC10, 24 h",-17.2%
same,"Creatine, variation in relation to control","SH-SY5Y cells [4]; IC10, 24 h",9.0%
same,"Cystathionine, variation in relation to control","SH-SY5Y cells [4]; IC10, 24 h",10.9%
same,"Formate, variation in relation to control","SH-SY5Y cells [4]; IC10, 24 h",0.0%
same,"Glutamate, variation in relation to control","SH-SY5Y cells [4]; IC10, 24 h",-6.3%
same,"Glutamine, variation in relation to control","SH-SY5Y cells [4]; IC10, 24 h",-10.8%
same,"Glycerophosphocholine, variation in relation to control","SH-SY5Y cells [4]; IC10, 24 h",-11.3%
same,"Glycine, variation in relation to control","SH-SY5Y cells [4]; IC10, 24 h",0.0%
same,"Histidine, variation in relation to control","SH-SY5Y cells [4]; IC10, 24 h",29.6%
same,"Isobutyrate, variation in relation to control","SH-SY5Y cells [4]; IC10, 24 h",0.0%
same,"Isoleucine, variation in relation to control","SH-SY5Y cells [4]; IC10, 24 h",30.5%
same,"Lactate, variation in relation to control","SH-SY5Y cells [4]; IC10, 24 h",0.0%
same,"Leucine, variation in relation to control","SH-SY5Y cells [4]; IC10, 24 h",39.9%
same,"NAD+, variation in relation to control","SH-SY5Y cells [4]; IC10, 24 h",0.0%
same,"Panthothenic, variation in relation to control","SH-SY5Y cells [4]; IC10, 24 h",42.7%
same,"Phenylalanine, variation in relation to control","SH-SY5Y cells [4]; IC10, 24 h",43.6%
same,"Phosphocholine, variation in relation to control","SH-SY5Y cells [4]; IC10, 24 h",0.0%
same,"Phosphocreatine, variation in relation to control","SH-SY5Y cells [4]; IC10, 24 h",0.0%
same,"Proline, variation in relation to control","SH-SY5Y cells [4]; IC10, 24 h",0.0%
same,"UDP-GlcNAc, variation in relation to control","SH-SY5Y cells [4]; IC10, 24 h",-18.7%
same,"Valine, variation in relation to control","SH-SY5Y cells [4]; IC10, 24 h",27.2%
same,"beta-Alanine, variation in relation to control","SH-SY5Y cells [4]; IC10, 24 h",-7.4%
same,"myo-Inositol, variation in relation to control","SH-SY5Y cells [4]; IC10, 24 h",-19.0%
same,"2-Ketovaline, variation in relation to control","SH-SY5Y cells [4]; IC50, 24 h",28.3%
same,"2-Oxoisoleucine, variation in relation to control","SH-SY5Y cells [4]; IC50, 24 h",34.4%
same,"ATP + ADP, variation in relation to control","SH-SY5Y cells [4]; IC50, 24 h",-14.0%
same,"Alanine, variation in relation to control","SH-SY5Y cells [4]; IC50, 24 h",21.3%
same,"Asparagine, variation in relation to control","SH-SY5Y cells [4]; IC50, 24 h",26.5%
same,"Aspartate, variation in relation to control","SH-SY5Y cells [4]; IC50, 24 h",23.7%
same,"Creatine, variation in relation to control","SH-SY5Y cells [4]; IC50, 24 h",14.7%
same,"Cystathionine, variation in relation to control","SH-SY5Y cells [4]; IC50, 24 h",0.0%
same,"Formate, variation in relation to control","SH-SY5Y cells [4]; IC50, 24 h",40.5%
same,"Glutamate, variation in relation to control","SH-SY5Y cells [4]; IC50, 24 h",25.8%
same,"Glutamine, variation in relation to control","SH-SY5Y cells [4]; IC50, 24 h",17.8%
same,"Glycerophosphocholine, variation in relation to control","SH-SY5Y cells [4]; IC50, 24 h",-75.7%
same,"Glycine, variation in relation to control","SH-SY5Y cells [4]; IC50, 24 h",42.8%
same,"Histidine, variation in relation to control","SH-SY5Y cells [4]; IC50, 24 h",37.5%
same,"Isobutyrate, variation in relation to control","SH-SY5Y cells [4]; IC50, 24 h",-78.2%
same,"Isoleucine, variation in relation to control","SH-SY5Y cells [4]; IC50, 24 h",44.5%
same,"Lactate, variation in relation to control","SH-SY5Y cells [4]; IC50, 24 h",-17.5%
same,"Leucine, variation in relation to control","SH-SY5Y cells [4]; IC50, 24 h",60.3%
same,"NAD+, variation in relation to control","SH-SY5Y cells [4]; IC50, 24 h",11.9%
same,"Panthothenic, variation in relation to control","SH-SY5Y cells [4]; IC50, 24 h",40.0%
same,"Phenylalanine, variation in relation to control","SH-SY5Y cells [4]; IC50, 24 h",50.2%
same,"Phosphocholine, variation in relation to control","SH-SY5Y cells [4]; IC50, 24 h",0.0%
same,"Phosphocreatine, variation in relation to control","SH-SY5Y cells [4]; IC50, 24 h",-18.9%
same,"Proline, variation in relation to control","SH-SY5Y cells [4]; IC50, 24 h",-17.8%
same,"UDP-GlcNAc, variation in relation to control","SH-SY5Y cells [4]; IC50, 24 h",-85.9%
same,"Valine, variation in relation to control","SH-SY5Y cells [4]; IC50, 24 h",44.8%
same,"beta-Alanine, variation in relation to control","SH-SY5Y cells [4]; IC50, 24 h",-60.7%
same,"myo-Inositol, variation in relation to control","SH-SY5Y cells [4]; IC50, 24 h",-42.6%
same,intracellular glutamate level (in words),"SH-SY5Y cells [4]; IC50, 24 h, vs control",increased
same,intracellular phosphocholine level (in words),"SH-SY5Y cells [4]; IC50, 24 h, vs control",not altered
same,Aqueous solubility,[5],62.1 mM
same,LD50,[6],13.4 mM

# — paper PMC9323911, “Comparative Metabolomics Study of the Impact of Articaine and Lidocaine on the Metabolism of SH-SY5Y Neuronal Cells” (Metabolites, 2022)
